System: NCI/ADR-RES complex spheroid viability
Experiment: Anticancer human tumor NCI/ADR-RES cell line growth inhibition;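 for viability, T/C: 100% = DMSO vehicle treated spheroids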
Conditions: for IC50: curve of first compound; for viability, T/C: stronger effect = lower value
Outline: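 Complex spheroids of tumor cells with HUVEC and human MSCs, exposed to iadademstat combined with other agents. Each agent tested in half-log steps from near clinical Cmax (else 10 microM top), DMSO ≤0.25%.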

[1] = second compound 0.1 µM, first compound 0.0316 µM
[2] = second compound 0.1 µM, first compound 0.1 µM
[3] = second compound 0.316 µM, first compound 0.0316 µM
[4] = second compound 0.316 µM, first compound 0.1 µM
[5] = second compound 1 µM, first compound 0.0316 µM
[6] = second compound 1 µM, first compound 0.1 µM
[7] = second compound 3.16 µM, first compound 0.0316 µM
[8] = second compound 3.16 µM, first compound 0.1 µM
[9] = second compound 10 µM, first compound 0.0316 µM
[10] = second compound 10 µM, first compound 0.1 µM

COc1ccc([C@@H](O)c2cc(-c3ncnc4cc(N5CCOCC5)ccc34)c(F)cc2Cl)nn1 + NC1CC1c1ccc(-c2cccc(O)c2)cc1
IC50 (second compound 0.1 µM): 3050 nM
IC50 (second compound 0.316 µM): 3240 nM
IC50 (second compound 1 µM): 3230 nM
IC50 (second compound 3.16 µM): 3250 nM
IC50 (second compound 10 µM): 1940 nM
viability, T/C [1]: 106%
viability, T/C [2]: 99.8%
viability, T/C (second compound 0.1 µM, first compound 0.316 µM): 84.8%
viability, T/C (second compound 0.1 µM, first compound 1 µM): 68.4%
viability, T/C (second compound 0.1 µM, first compound 3.16 µM): 50.7%
viability, T/C (second compound 0.1 µM, first compound 10 µM): 25.9%
viability, T/C [3]: 106%
viability, T/C [4]: 105%
viability, T/C (second compound 0.316 µM, first compound 0.316 µM): 92.7%
viability, T/C (second compound 0.316 µM, first compound 1 µM): 74%
viability, T/C (second compound 0.316 µM, first compound 3.16 µM): 51.4%
viability, T/C (second compound 0.316 µM, first compound 10 µM): 27.7%
viability, T/C [5]: 105%
viability, T/C [6]: 99.1%
viability, T/C (second compound 1 µM, first compound 0.316 µM): 90.6%
viability, T/C (second compound 1 µM, first compound 1 µM): 73.1%
viability, T/C (second compound 1 µM, first compound 3.16 µM): 50.5%
viability, T/C (second compound 1 µM, first compound 10 µM): 25.7%
viability, T/C [7]: 101%
viability, T/C [8]: 96%
viability, T/C (second compound 3.16 µM, first compound 0.316 µM): 83.4%
viability, T/C (second compound 3.16 µM, first compound 1 µM): 72.4%
viability, T/C (second compound 3.16 µM, first compound 3.16 µM): 50.5%
viability, T/C (second compound 3.16 µM, first compound 10 µM): 22.6%
viability, T/C [9]: 84.6%
viability, T/C [10]: 87.3%
viability, T/C (second compound 10 µM, first compound 0.316 µM): 77%
viability, T/C (second compound 10 µM, first compound 1 µM): 61.8%
viability, T/C (second compound 10 µM, first compound 3.16 µM): 41.4%
viability, T/C (second compound 10 µM, first compound 10 µM): 23.2%

CC(C)CC(NC(=O)CNC(=O)c1cc(Cl)ccc1Cl)B1OC(=O)CC(CC(=O)O)(C(=O)O)O1 (stereo not given) + NC1CC1c1ccc(-c2cccc(O)c2)cc1
IC50 (second compound 0.1 µM): 23.6 nM
IC50 (second compound 0.316 µM): 23.8 nM
IC50 (second compound 1 µM): 25.9 nM
IC50 (second compound 3.16 µM): 19.5 nM
IC50 (second compound 10 µM): 17.7 nM
viability, T/C (second compound 0.1 µM, first compound 0.000316 µM): 101%
viability, T/C (second compound 0.1 µM, first compound 0.001 µM): 108%
viability, T/C (second compound 0.1 µM, first compound 0.00316 µM): 97.9%
viability, T/C (second compound 0.1 µM, first compound 0.01 µM): 84.5%
viability, T/C [1]: 38.3%
viability, T/C [2]: 2.37%
viability, T/C (second compound 0.316 µM, first compound 0.000316 µM): 109%
viability, T/C (second compound 0.316 µM, first compound 0.001 µM): 104%
viability, T/C (second compound 0.316 µM, first compound 0.00316 µM): 102%
viability, T/C (second compound 0.316 µM, first compound 0.01 µM): 81.3%
viability, T/C [3]: 39.8%
viability, T/C [4]: 2.3%
viability, T/C (second compound 1 µM, first compound 0.000316 µM): 97.3%
viability, T/C (second compound 1 µM, first compound 0.001 µM): 93.8%
viability, T/C (second compound 1 µM, first compound 0.00316 µM): 96.2%
viability, T/C (second compound 1 µM, first compound 0.01 µM): 81.3%
viability, T/C [5]: 43.4%
viability, T/C [6]: 3.84%
viability, T/C (second compound 3.16 µM, first compound 0.000316 µM): 101%
viability, T/C (second compound 3.16 µM, first compound 0.001 µM): 94.7%
viability, T/C (second compound 3.16 µM, first compound 0.00316 µM): 88.9%
viability, T/C (second compound 3.16 µM, first compound 0.01 µM): 80.4%
viability, T/C [7]: 28.5%
viability, T/C [8]: 4.76%
viability, T/C (second compound 10 µM, first compound 0.000316 µM): 90.3%
viability, T/C (second compound 10 µM, first compound 0.001 µM): 88.9%
viability, T/C (second compound 10 µM, first compound 0.00316 µM): 81%
viability, T/C (second compound 10 µM, first compound 0.01 µM): 64.9%
viability, T/C [9]: 34.9%
viability, T/C [10]: 2.76%
